The values that follow come from patent publication US11384063B2, “Modulators of estrogen receptor proteolysis and associated methods of use” (Arvinas Operations, Inc., priority 2017, dated 2022).

For assay [1], the target named is T1, ERα (Homo sapiens, UniProt P03372).
T1 sequence (P03372 1-595): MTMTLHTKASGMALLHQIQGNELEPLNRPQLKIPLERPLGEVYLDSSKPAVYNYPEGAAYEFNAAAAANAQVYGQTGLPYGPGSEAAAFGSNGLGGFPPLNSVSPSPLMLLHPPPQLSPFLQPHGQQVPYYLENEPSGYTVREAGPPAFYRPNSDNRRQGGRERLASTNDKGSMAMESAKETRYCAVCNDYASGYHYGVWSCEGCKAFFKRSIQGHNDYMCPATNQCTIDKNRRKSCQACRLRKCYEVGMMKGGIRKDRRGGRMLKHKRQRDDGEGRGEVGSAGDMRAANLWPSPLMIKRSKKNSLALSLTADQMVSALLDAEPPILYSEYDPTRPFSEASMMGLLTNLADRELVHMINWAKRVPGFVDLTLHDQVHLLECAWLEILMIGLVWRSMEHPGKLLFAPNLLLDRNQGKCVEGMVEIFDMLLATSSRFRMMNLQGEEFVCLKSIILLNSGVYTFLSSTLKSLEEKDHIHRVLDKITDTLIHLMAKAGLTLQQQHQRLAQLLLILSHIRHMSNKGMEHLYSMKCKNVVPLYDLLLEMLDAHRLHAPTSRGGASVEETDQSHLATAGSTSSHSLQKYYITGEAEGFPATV
Briefly: ERE luciferase reporter gene assay in T47D-KBluc cells (target engagement). It counts as cell-based. Set-up: T47D human breast cancer cells stably transfected with estrogen responsive element/promoter/luciferase reporter gene; host or cells: T47D-KBluc cells. Conditions: 10% FBS, 24 hours, Table 2 VHL centric PROTACs, read-out: IC50. The essentials: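 T47D-KBluc breast cancer cells, which carry a stable ERE-luciferase reporter, were grown in RPMI with 10% FBS (about 10 pM estrogen) and exposed to PROTACs for 24 h. The 12-point, 3-fold series ran from 300 nM to 2 pM. Luciferase was read after lysis, and IC50 was fitted from duplicates.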

Assay [2] deals with T1, ERα. In words: Estrogen receptor-alpha (ERα) degradation assay in MCF-7 cells using western blot. Conditions: ER-alpha degradation, MCF7 cells, 3 days of incubation. It counts as cell-based. Also on record: assessed for their activity in degrading ERα in MCF-7 cells via western blot; endogenous in cells; host or cells: MCF7 cells. The protocol: Compounds prepared in this application were also analyzed for the degradation of ERα in MCF7 and T47D cells.
Estrogen Receptor-Alpha (ERα) Degradation Assay in MCF-7 Cells Using Western Blot Method for Table 4.
The exemplary novel ERα degraders were assessed for their activity in degrading ERα in MCF-7 cells via western blot. The assay was carried out in the presence of 10% fetal bovine serum (FBS) or high percentage of human or mouse serum.
MCF7 cells were grown in DMEM/F12 with 10% fetal bovine serum and seeded at 24,000 cells per well in 100 μl into 96-well clear tissue culture plates. The following day, the cells were treated with PROTACs in a […] concentration curve with 100 nM being the top concentration and serial dilutions to make the other concentrations (30 nM, 10 nM, 3 nM, 1 nM, and 0.3 nM). At all concentrations, 0.01% DMSO is the final concentration in the well. The following day, the plates are aspirated, washed with 50 μl of cold PBS. The cells are lysed with 50 μl/well 4° C. Cell Lysis Buffer (Catalog #9803; Cell Signaling Technology, Danvers, Mass.) (20 mM Tris-HCL (pH 7.5), 150 mM NaCl, 1 mM […], 1 mM EGTA, 1% Triton, 2.5 mM sodium pyrophosphate, 1 mM B-glycerophosphate, 1 mM sodium vanadate, 1 ug/ml leupeptin). Lysates were clarified at 16,000×g for 10 minutes, and 2 μg of protein was subjected to SDS-PAGE analysis and followed by immunoblotting according to standard protocols. The antibodies used were ERα (Cell Signaling Technologies Catalog #8644), and Tubulin (Sigma Catalog #T9026; St. Louis, Mo.). Detection reagents were Clarity Western ECL substrate (Bio-Rad Catalog #170-5060; Hercules, Calif.).
Alternatively, MCF7 cells were grown in DMEM/F12 with 10% fetal bovine serum and seeded at 24,000 cells per well in 500 μl in 24-well clear tissue culture plates. The following day, the cells were treated with PROTACs in a 5-point concentration curve (100 nM, 33 nM, 11 nM, 3.7 nM, and 1.2 nM) in the presence of 0.01% DMSO. After 72 hours, the wells are aspirated and washed with 500 μl of PBS. The cells are lysed with 100 μl/well 4° C. Cell Lysis Buffer (Catalog #9803; Cell Signaling Technology, Danvers, M A) (20 mM Tris-HCL (pH 7.5), 150 mM NaCl, 1 mM Na2EDTA, 1 mM EGTA, 1% Triton, 2.5 mM sodium pyrophosphate, 1 mM B-glycerophosphate, 1 mM sodium vanadate, 1 ug/ml leupeptin). Lysates were clarified at 16,000×g for 10 minutes, and 2 μg of protein was subjected to SDS-PAGE analysis and followed by immunoblotting according to standard protocols. The antibodies used were ER(X (Cell Signaling Technologies Catalog #8644), and Tubulin (Sigma Catalog #T9026; St. Louis, Mo.). Detection reagents were Clarity Western ECL substrate (Bio-Rad Catalog #170-5060; Hercules, Calif.).

The structures appear in SMILES notation.

On to `Cc1ncsc1-c1ccc([C@H](C)NC(=O)[C@@H]2C[C@@H](O)CN2C(=O)[C@@H](NC(=O)COCCOCCN2CCC(c3ccc(Oc4c(-c5ccc(F)cc5)sc5cc(O)ccc45)cc3)CC2)C(C)(C)C)cc1` [Compound 142, (2S,4R)-1-[(2S)-2-[2-(2-[2-[4-(4-[[2-(4-fluorophenyl)-6-hydroxy-1-benzothiophen-3-yl]oxy]phenyl)piperidin-1-yl]ethoxy]ethoxy)acetamido]-3,3-dimethylbutanoyl]-4-hydroxy-N-[(1S)-1-[4-(4-methyl-1,3-thiazol-5-yl)phenyl]ethyl]pyrrolidine-2-carboxamide], for which the IC50 at ERα [1] stood at 0.5 nM. For the same compound, on ERα [2], the DC50 is < 1 nM and the Dmax was > 75%.

Turning to `C[C@H](NC(=O)[C@@H]1C[C@@H](O)CN1C(=O)[C@@H](NC(=O)COCCOCCN1CCC(c2ccc(Oc3c(-c4ccc(F)cc4)sc4cc(O)ccc34)cc2)CC1)C(C)(C)C)c1ccc(C#N)cc1` [Compound 147, (2S,4R)—N-[(1S)-1-(4-cyanophenyl)ethyl]-1-[(2S)-2-[2-(2-[2-[4-(4-[[2-(4-fluorophenyl)-6-hydroxy-1-benzothiophen-3-yl]oxy]phenyl)piperidin-1-yl]ethoxy]ethoxy)acetamido]-3,3-dimethylbutanoyl]-4-hydroxypyrrolidine-2-carboxamide], the half-maximal inhibitory concentration (IC50) at ERα [1] stood at 1 nM. Moreover, at ERα [2], the DC50 was in the range of 1 to 10 nM and the greatest degradation seen (Dmax) is > 75%.

With `C[C@H](NC(=O)[C@@H]1C[C@@H](O)CN1C(=O)[C@@H](NC(=O)Cc1ccc(-c2ccn(CCOc3ccc(Oc4c(-c5ccc(F)cc5)sc5cc(O)ccc45)cc3)n2)cc1)C(C)(C)C)c1ccc(C#N)cc1` [Compound 149], the IC50 on ERα [1] is 1.4 nM. Besides, at ERα [2], the DC50 lay in the range of 1 to 10 nM and the Dmax was > 75%.

As to `C[C@H](NC(=O)[C@@H]1C[C@@H](O)CN1C(=O)[C@@H](NC(=O)Cc1ccc(-c2ccn(CCOc3ccc(Oc4c(-c5ccc(F)cc5)sc5cc(O)ccc45)cc3)n2)cc1)C(C)(C)C)c1ccc(Cl)cc1` [Compound 150, (2S,4R)-N-[(1S)-1-(4-chlorophenyl)ethyl]-1-[(2S)-2-[2-(4-[1-[2-[4-[[2(4-fluorophenyl)-6-hydroxy-1-benzothiophen-3-yl]oxy]phenoxy)ethyl]-1H-pyrazol-3-yl]phenyl)acetamido]-3,3-dimethylbutanoyl]-4-hydroxypyrrolidine-2-carboxamide], the concentration for half-maximal inhibition (IC50) at ERα [1] was 17 nM. On ERα [2], the DC50 is 10 to 100 nM and the Dmax was > 75%.

Regarding `Cc1ncsc1-c1ccc(CNC(=O)[C@@H]2C[C@@H](O)CN2C(=O)[C@@H](NC(=O)COCCN2CCN(CCOc3ccc(Oc4c(-c5ccc(Cl)cc5)sc5cc(O)ccc45)cc3)CC2)C(C)(C)C)cc1` [Compound 151, (2S,4R)-1-[(2S)-2-[2-(2-[4-[2-(4-[[2-(4-chlorophenyl)-6-hydroxy-1-benzothiophen-3-yl]oxy]phenoxy)ethyl]piperazin-1-yl]ethoxy)acetamido]-3,3-dimethylbutanoyl]-4-hydroxy-N-[[4-(4-methyl-1,3-thiazol-5-yl)phenyl]methyl]pyrrolidine-2-carboxamide], the 50% inhibitory concentration (IC50) on ERα [1] was found to be 0.4 nM. On ERα [2], the DC50 is < 1 nM and the maximal degradation (Dmax) is > 75%.

Regarding `Cc1ncsc1-c1ccc([C@H](C)NC(=O)[C@@H]2C[C@@H](O)CN2C(=O)[C@@H](NC(=O)COCCN2CCN(CCOc3ccc(Oc4c(-c5ccc(Br)cc5)sc5cc(O)ccc45)cc3)CC2)C(C)(C)C)cc1` [Compound 153, (2S,4R)-1-[(2S)-2-[2-(2-[4-[2-(4-[[2-(4-bromophenyl)-6-hydroxy-1-benzothiophen-3-yl]oxy]phenoxy)ethyl]piperazin-1-yl]ethoxy)acetamido]-3,3-dimethylbutanoyl]-4-hydroxy-N-[(1S)-1-[4-(4-methyl-1,3-thiazol-5-yl)phenyl]ethyl]pyrrolidine-2-carboxamide], the IC50 on ERα [1] was determined as 3.2 nM. In addition, on ERα [2], the 50% degradation concentration (DC50) is 1 to 10 nM and the Dmax is > 75%.
